Results on 1 compound are retold here after patent publication US20030113267A1, “Colon contrast enhanced imaging” (priority 1999, published 2003).

Data set [1] can be described thus: MRI signal intensity over time in liver parenchyma, healthy volunteers. Type of data set: in vivo, human. Conditions: average of six healthy volunteers, 0.1 mmol/kg i.v., FIG. 1. As to the method: (§1) The trial was conducted in six healthy volunteers aged between 22 and 29 years. The contrast agent used was Gd-BOPTA meglumine salt (MultiHance™), administered intravenously at a dose of 0.1 mmol/kg of body weight. The successive recording of images of the abdomen was performed 1, 12, 24, 36, 48, 70 and 105 hours after administration of the agent using the following 3D angio-sequence: 3D FLASH; TR 4.6 ms; TE 1.8 ms; α 50° C.; rect. FOV 390 mm (6/8); Ma: 215×512; acq 28 s; slab thickness 120 mm; 42 sections. Three volunteers were re-tested 14 days after administration of the agent.
(§2) T1-weighted axial images of the liver and abdomen were recorded in addition to the 3D angio-sequences referred to above.
(§3) The visualisation procedure was conducted with an MRI scanner operating at 1.5 Tesla (Magneton Vision Plus, Siemens Medical Systems, Erlangen, Germany) equipped with a phased array body coil.
(§4) Before performing colonography, it was possible to investigate liver function by recording the signal intensity in the liver parenchyma and gall bladder in the first few hours after administration of the contrast agent. […] This seems to be the ideal period for recording three-dimensional MRI colonography.

The conditions of data set [2]: cited from earlier work.
Data set [3] can be described thus: 3D angiographic MRI colonography in healthy volunteers after intravenous injection. Type of data set: in vivo, human.
Excerpt: Description of method of acquisition of MRI images of the luminal part of the colon using the three-dimensional angiography technique in healthy volunteers after intravenous injection of MultiHance™ (Gd-BOPTA meglumine salt).
A three-dimensional angiographic imaging technique was used because it provides advantageous visualisation of large regions of the anatomy, especially when associated with administration of contrast agents which are particularly effective in reducing the T1 relaxation times in standard MRI investigations.
In the trial conducted, the increased contrast in the hepatobiliary system and the gastrointestinal system was obtained with this kind of diagnostic technique, which produced up to 42 images of a three-dimensional volume measuring 40×32×12 cm in a single breath-hold.
as §1, §2, §3
The images were processed with standard MIP software on a dedicated 3D MR workstation (Virtuoso, Siemens Medical System).
No preparation, medication or joint administration of other drugs or other contrast media was performed on the volunteers studied.

Data set [4] can be described thus: MRI signal intensity over time in gall bladder, healthy volunteers. Type of data set: in vivo, human. On the procedure: as §1, §2, §3, §4
The conditions of data set [5]: in man; cited from earlier work.

As for `CNC[C@H](O)[C@@H](O)[C@H](O)[C@H](O)CO.CNC[C@H](O)[C@@H](O)[C@H](O)[C@H](O)CO.O=C([O-])CN(CCN(CC(=O)[O-])CC(=O)O)CCN(CC(=O)O)C(COCc1ccccc1)C(=O)[O-].[Gd+3]` (centres unmarked) [MultiHance, gadobenate dimeglumine], the “time for signal intensity to be halved in liver parenchyma” value in data set [1] was not above 10 h. Further, the solubility in water entry in data set [2] is listed as “soluble in water”. For the same compound, the “time after which a partial increase of intraluminal signal was still detectable” value in data set [3] (0.1 mmol/kg i.v.) is 8 days. The “homogeneity of contrast in the lumen” value in data set [3] (0.1 mmol/kg i.v., faeces present, no preparation) is on record as “homogenous contrast in the lumen”. Also, the “signal in the colon, 3D MR colonography” value in data set [3] (24 hours after injection of 0.1 mmol/kg BW, no bowel preparation, FIG. 2) is reported as “Homogenous signal can be seen in all segments of the colon”. The “time to intense increase in intraluminal contrast after administration” value in data set [3] (all six healthy volunteers, 0.1 mmol/kg i.v., no bowel preparation) was not above 24 h. Also, the “time after administration at which an intense intraluminal signal was still detected in the colon” value in data set [3] (in some patients, 0.1 mmol/kg i.v.) was not above 100 h. The “intraluminal contrast after intravenous administration” value in data set [3] (intravenous administration, contrast recorded in the colon) is “substantial increase in intraluminal contrast”. For the same compound, the “enhancement within the gallbladder” value in data set [4] (24 hours after injection of 0.1 mmol/kg BW, FIG. 2) is recorded as “still intense enhancement”. Also, the “half-life of signal intensity in gall bladder” value in data set [4] (average of six healthy volunteers, 0.1 mmol/kg i.v., FIG. 1) was 15 h. The “proportion excreted by the biliary route” value in data set [5] was 2-4%.
